Values of other authors as cited in US9877930B2, “Topical ubiquinol oral supplement compositions with amorphous calcium phosphate” (Premier Dental Products Company, priority 2012, dated 2018).

Experiments:
[1] = test system: human monocytic celline THP-1; conditions: LPS-stimulated THP-1
[2] = 150 mg per day in a softgel, orally, within 28 days
[3] = not given; remark: listed apart in the source
periodontal disease = conditions: 150 mg capsule/day for two months
adult periodontitis = conditions: topical once weekly via syringe for six weeks, with mechanical debridement; sites that bled at day 0

COc1c(O)c(C)c(C/C=C(\C)CC/C=C(\C)CC/C=C(\C)CC/C=C(\C)CC/C=C(\C)CC/C=C(\C)CC/C=C(\C)CC/C=C(\C)CC/C=C(\C)CCC=C(C)C)c(O)c1OC [UBIQUINOL]
effect on inflammatory cytokines and chemokines in vitro [1]: anti-inflammatory effects | time required to reach peak concentration (absorption from the gastrointestinal tract): approximately 6 hours | time to steady-state concentrations (oral treatment): within two weeks | peak blood values [2]: 3.84 µg/mL | water solubility [3]: less than 0.1 mg/ml | effect on oral environment for periodontal disease (periodontal disease): effective in improving oral environment for periodontal disease

COC1=C(OC)C(=O)C(C/C=C(\C)CC/C=C(\C)CC/C=C(\C)CC/C=C(\C)CC/C=C(\C)CC/C=C(\C)CC/C=C(\C)CC/C=C(\C)CC/C=C(\C)CCC=C(C)C)=C(C)C1=O [CoQ10, ubiquinone]
bleeding on probing at treated sites (adult periodontitis): no bleeding at six weeks
